Results from PubChem BioAssay (NCI).
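Interpolation was linear, between the two tested concentrations surrounding the appropriate level; five concentrations were tested over 48 hours in 96-well plates. TGI marks complete inhibition of growth.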

What was measured:
Assay in all cases: DTP human tumour cell line panel, 48 h
NCI-H226 lung = tested on: NCI-H226 lung
HCC-2998 colon = tested on: HCC-2998 colon
SK-OV-3 ovarian = tested on: SK-OV-3 ovarian
UACC-62 melanoma = tested on: UACC-62 melanoma
786-0 renal = tested on: 786-0 renal
SK-MEL-5 melanoma = tested on: SK-MEL-5 melanoma
HOP-92 NSCLC = tested on: HOP-92 NSCLC
SNB-75 CNS = tested on: SNB-75 CNS
MCF7 breast = tested on: MCF7 breast
K-562 leukemia = tested on: K-562 leukemia
MOLT-4 leukemia = tested on: MOLT-4 leukemia
M14 melanoma = tested on: M14 melanoma
OVCAR-3 ovarian = tested on: OVCAR-3 ovarian
SF-268 CNS = tested on: SF-268 CNS
HL-60(TB) leukemia = tested on: HL-60(TB) leukemia
UO-31 renal = tested on: UO-31 renal
EKVX NSCLC = tested on: EKVX NSCLC
HCT-15 colon = tested on: HCT-15 colon
NCI/ADR-RES ovarian = tested on: NCI/ADR-RES ovarian
SNB-19 CNS = tested on: SNB-19 CNS
HOP-62 NSCLC = tested on: HOP-62 NSCLC
TK-10 renal = tested on: TK-10 renal
OVCAR-5 ovarian = tested on: OVCAR-5 ovarian
MDA-N = tested on: MDA-N
IGROV1 ovarian = tested on: IGROV1 ovarian
HCT-116 colon = tested on: HCT-116 colon
DU-145 prostate = tested on: DU-145 prostate
U251 CNS = tested on: U251 CNS
NCI-H460 lung = tested on: NCI-H460 lung
SR leukemia = tested on: SR leukemia
T-47D breast = tested on: T-47D breast
PC-3 prostate = tested on: PC-3 prostate
A549 NSCLC = tested on: A549 NSCLC
SW-620 colon = tested on: SW-620 colon
OVCAR-4 ovarian = tested on: OVCAR-4 ovarian
MALME-3M melanoma = tested on: MALME-3M melanoma
COLO 205 colon = tested on: COLO 205 colon
BT-549 breast = tested on: BT-549 breast
NCI-H23 lung = tested on: NCI-H23 lung
HT29 colon = tested on: HT29 colon
SN12C renal = tested on: SN12C renal
UACC-257 melanoma = tested on: UACC-257 melanoma
SF-295 CNS = tested on: SF-295 CNS
OVCAR-8 ovarian = tested on: OVCAR-8 ovarian
LOX IMVI melanoma = tested on: LOX IMVI melanoma
MDA-MB-435 = tested on: MDA-MB-435
SK-MEL-28 melanoma = tested on: SK-MEL-28 melanoma
MDA-MB-231 breast = tested on: MDA-MB-231 breast
ACHN renal = tested on: ACHN renal
CCRF-CEM leukemia = tested on: CCRF-CEM leukemia
A498 renal = tested on: A498 renal
RPMI-8226 leukemia = tested on: RPMI-8226 leukemia
NCI-H522 lung = tested on: NCI-H522 lung
KM12 colon = tested on: KM12 colon
SF-539 CNS = tested on: SF-539 CNS
SK-MEL-2 melanoma = tested on: SK-MEL-2 melanoma
CAKI-1 renal = tested on: CAKI-1 renal
RXF 393 renal = tested on: RXF 393 renal

Measured: TGI

C=C=C(C)C(=O)N(C(C)C)C(C)C
> 100 µM: NCI-H226 lung | HCC-2998 colon | SK-OV-3 ovarian | UACC-62 melanoma | 786-0 renal | SK-MEL-5 melanoma | HOP-92 NSCLC | SNB-75 CNS | MCF7 breast | K-562 leukemia | MOLT-4 leukemia | M14 melanoma | OVCAR-3 ovarian | SF-268 CNS | HL-60(TB) leukemia | UO-31 renal | EKVX NSCLC | HCT-15 colon | NCI/ADR-RES ovarian | SNB-19 CNS | HOP-62 NSCLC | TK-10 renal | OVCAR-5 ovarian | MDA-N | IGROV1 ovarian | HCT-116 colon | DU-145 prostate | U251 CNS | NCI-H460 lung | SR leukemia | T-47D breast | PC-3 prostate | A549 NSCLC | SW-620 colon | OVCAR-4 ovarian | MALME-3M melanoma | COLO 205 colon | BT-549 breast | NCI-H23 lung | HT29 colon | SN12C renal | UACC-257 melanoma | SF-295 CNS | OVCAR-8 ovarian | LOX IMVI melanoma | MDA-MB-435 | SK-MEL-28 melanoma | MDA-MB-231 breast | ACHN renal | CCRF-CEM leukemia | A498 renal | RPMI-8226 leukemia

SCCCSCCSCCCSCCS
> 100 µM: NCI-H522 lung | HCC-2998 colon | SK-OV-3 ovarian | UACC-62 melanoma | 786-0 renal | SK-MEL-5 melanoma | SNB-75 CNS | KM12 colon | MCF7 breast | K-562 leukemia | MOLT-4 leukemia | M14 melanoma | OVCAR-3 ovarian | SF-268 CNS | HL-60(TB) leukemia | UO-31 renal | EKVX NSCLC | HCT-15 colon | NCI/ADR-RES ovarian | SNB-19 CNS | HOP-62 NSCLC | OVCAR-5 ovarian | MDA-N | IGROV1 ovarian | HCT-116 colon | DU-145 prostate | U251 CNS | NCI-H460 lung | SR leukemia | T-47D breast | PC-3 prostate | A549 NSCLC | SW-620 colon | OVCAR-4 ovarian | SF-539 CNS | COLO 205 colon | BT-549 breast | NCI-H23 lung | HT29 colon | SN12C renal | UACC-257 melanoma | SF-295 CNS | OVCAR-8 ovarian | LOX IMVI melanoma | MDA-MB-435 | SK-MEL-28 melanoma | MDA-MB-231 breast | CCRF-CEM leukemia

CC(C)(C)OC(=O)NCCCCCCC(=O)Cc1ccccc1
> 100 µM: NCI-H226 lung | NCI-H522 lung | HCC-2998 colon | SK-OV-3 ovarian | 786-0 renal | SK-MEL-5 melanoma | HOP-92 NSCLC | SNB-75 CNS | KM12 colon | MCF7 breast | K-562 leukemia | MOLT-4 leukemia | M14 melanoma | OVCAR-3 ovarian | SF-268 CNS | UO-31 renal | SK-MEL-2 melanoma | EKVX NSCLC | HCT-15 colon | CAKI-1 renal | NCI/ADR-RES ovarian | SNB-19 CNS | RXF 393 renal | HOP-62 NSCLC | TK-10 renal | OVCAR-5 ovarian | MDA-N | IGROV1 ovarian | HCT-116 colon | DU-145 prostate | U251 CNS | NCI-H460 lung | SR leukemia | T-47D breast | PC-3 prostate | A549 NSCLC | SW-620 colon | OVCAR-4 ovarian | MALME-3M melanoma | COLO 205 colon | BT-549 breast | NCI-H23 lung | HT29 colon | SN12C renal | UACC-257 melanoma | SF-295 CNS | OVCAR-8 ovarian | LOX IMVI melanoma | MDA-MB-435 | SK-MEL-28 melanoma | MDA-MB-231 breast | ACHN renal | CCRF-CEM leukemia | A498 renal | RPMI-8226 leukemia

CCNC(=S)NNC(=O)c1csc(NC(=S)NC2CCCCC2)n1
35.2 µM: NCI-H460 lung
17.3 µM: SN12C renal
25.6 µM: 786-0 renal
45.8 µM: DU-145 prostate
18.8 µM: HCT-116 colon
71.6 µM: RPMI-8226 leukemia
28.1 µM: OVCAR-8 ovarian
23.1 µM: UO-31 renal
37.2 µM: HCT-15 colon
22.8 µM: SF-539 CNS
19.2 µM: SW-620 colon
40 µM: A498 renal
16.2 µM: OVCAR-3 ovarian
40.7 µM: SF-295 CNS
32.4 µM: HOP-62 NSCLC
56.9 µM: OVCAR-4 ovarian
53.7 µM: T-47D breast
62.3 µM: SK-OV-3 ovarian
36.6 µM: BT-549 breast
23.7 µM: U251 CNS
23.8 µM: HCC-2998 colon
21.9 µM: COLO 205 colon
64.5 µM: PC-3 prostate
15.8 µM: MDA-N
21.4 µM: LOX IMVI melanoma
27.3 µM: UACC-257 melanoma
28 µM: KM12 colon
67.8 µM: A549 NSCLC
27.7 µM: UACC-62 melanoma
89.8 µM: ACHN renal
63.5 µM: MOLT-4 leukemia
21.1 µM: MDA-MB-435
15.5 µM: SK-MEL-5 melanoma
27.1 µM: M14 melanoma
> 100 µM: NCI-H226 lung | MCF7 breast | EKVX NSCLC | SNB-19 CNS | TK-10 renal | OVCAR-5 ovarian | SR leukemia | NCI-H23 lung | HT29 colon | CCRF-CEM leukemia
42.4 µM: NCI/ADR-RES ovarian
31.1 µM: CAKI-1 renal
31.4 µM: SF-268 CNS
29.3 µM: SK-MEL-2 melanoma
24.9 µM: MDA-MB-231 breast

COC(=O)c1ccc(NC(=O)c2cc3c(cc2Br)OCO3)o1
> 100 µM: NCI-H226 lung | NCI-H522 lung | HCC-2998 colon | SK-OV-3 ovarian | UACC-62 melanoma | 786-0 renal | SK-MEL-5 melanoma | HOP-92 NSCLC | KM12 colon | MCF7 breast | K-562 leukemia | MOLT-4 leukemia | M14 melanoma | OVCAR-3 ovarian | HL-60(TB) leukemia | UO-31 renal | SK-MEL-2 melanoma | EKVX NSCLC | HCT-15 colon | CAKI-1 renal | NCI/ADR-RES ovarian | SNB-19 CNS | HOP-62 NSCLC | TK-10 renal | OVCAR-5 ovarian | MDA-N | IGROV1 ovarian | HCT-116 colon | DU-145 prostate | U251 CNS | SR leukemia | T-47D breast | PC-3 prostate | A549 NSCLC | SW-620 colon | OVCAR-4 ovarian | SF-539 CNS | COLO 205 colon | BT-549 breast | NCI-H23 lung | HT29 colon | SN12C renal | UACC-257 melanoma | SF-295 CNS | OVCAR-8 ovarian | LOX IMVI melanoma | MDA-MB-435 | SK-MEL-28 melanoma | MDA-MB-231 breast | ACHN renal | CCRF-CEM leukemia | A498 renal | RPMI-8226 leukemia
69.8 µM: SF-268 CNS
